Reference: US10550124B2, “Atropisomerism for increased kinase inhibitor selectivity” (SAN DIEGO STATE UNIVERSITY RESEARCH FOUNDATION, priority 2015, dated 2020)
Where “and” joins values, the source holds several entries; their conditions need not be identical. Equal values may be shown once. Each block holds one compound with its values, some of them ahead of it.

Key:
Assay type in all cases: biochemical
Abl = Abl (Homo sapiens, UniProt P00519); experiment: Z′-LYTE kinase inhibition assay, Abl; conditions: for IC50 of Kinase/IC50 of Yes: Abl relative to Yes; for IC50: error is standard deviation
Source text: (§1) All samples were sent out to Life Technologies to obtain kinase inhibition data. A brief description of the assays and analyses are included below.
(§2) Assay Theory (SelectScreen® Kinase Profiling Services (Life Technologies, Madison, Wis. USA). The Z′-LYTE® biochemical assay employs a fluorescence-based, coupled-enzyme format and is based on the differential sensitivity of phosphorylated and non-phosphorylated peptides to proteolytic cleavage. The peptide substrate is labeled with two fluorophores one at each end—that make up a FRET pair.
(§3) In the primary reaction, the kinase transfers the gamma-phosphate of ATP to a single tyrosine, serine or threonine residue in a synthetic FRET-peptide. In the secondary reaction, a site-specific protease recognizes and cleaves non-phosphorylated FRET-peptides.
(§4) Phosphorylation of FRET-peptides suppresses cleavage by the Development Reagent. Cleavage disrupts FRET between the donor (i.e., coumarin) and acceptor (i.e., fluorescein) fluorophores on the FRET-peptide, whereas uncleaved, phosphorylated FRET-peptides maintain FRET. A ratiometric method, which calculates the ratio (the Emission Ratio) of donor emission to acceptor emission after excitation of the donor fluorophore at 400 nm, is used to quantitate reaction progress, as shown in the equation below: […]
(§5) A significant benefit of this ratiometric method for quantitating reaction progress is the elimination of well-to-well variations in FRET-peptide concentration and signal intensities. As a result, the assay yields very high Z′-factor values (>0.7) at a low percent phosphorylation. Both cleaved and uncleaved FRET-peptides contribute to the fluorescence signals and therefore to the Emission Ratio. The extent of phosphorylation of the FRET-peptide can be calculated from the Emission Ratio. The Emission Ratio will remain low if the FRET-peptide is phosphorylated (i.e., no kinase inhibition) and will he high if the FRET-peptide is non-phosphorylated (i.e., kinase inhibition).

Alk = Alk (Homo sapiens, UniProt Q9UM73); experiment: Z′-LYTE kinase inhibition assay, Alk; conditions: average of 2 runs; for inhibition at 1 µM: 1000 nM
Source text: as §1, §2, §3, §4, §5

Blk = Blk (Homo sapiens, UniProt P51451); experiment: Z′-LYTE kinase inhibition assay, Blk; conditions: average of 2 runs
Source text: as §1, §2, §3, §4, §5

BTK = BTK (Homo sapiens, UniProt Q06187); experiment: Z′-LYTE kinase inhibition assay, BTK; conditions: average of 2 runs; for inhibition at 1 µM: 1000 nM
Source text: as §1, §2, §3, §4, §5

CSK = CSK (Homo sapiens, UniProt P41240); experiment: Z′-LYTE kinase inhibition assay, CSK; conditions: average of 2 runs; for inhibition at 1 µM: 1000 nM
Source text: as §1, §2, §3, §4, §5

EGFR = EGFR (Homo sapiens, UniProt P00533); experiment: Z′-LYTE kinase inhibition assay, EGFR; conditions: for IC50 of Kinase/IC50 of Yes: EGFR relative to Yes; for IC50: error is standard deviation
Source text: as §1, §2, §3, §4, §5

Her-2 = Her-2 (Homo sapiens, UniProt P04626); experiment: Z′-LYTE kinase inhibition assay, Her-2; conditions: average of 2 runs
Source text: as §1, §2, §3, §4, §5

Fgr = Fgr (Homo sapiens, UniProt P09769); experiment: Z′-LYTE kinase inhibition assay, Fgr; conditions: average of 2 runs; for inhibition at 1 µM: 1000 nM
Source text: as §1, §2, §3, §4, §5

Fyn = Fyn (Homo sapiens, UniProt P06241); experiment: Z′-LYTE kinase inhibition assay, Fyn; conditions: average of 2 runs; for inhibition at 1 µM: 1000 nM
Source text: as §1, §2, §3, §4, §5

Hck = Hck (Homo sapiens, UniProt P08631); experiment: Z′-LYTE kinase inhibition assay, Hck; conditions: average of 2 runs; for inhibition at 1 µM: 1000 nM
Source text: as §1, §2, §3, §4, §5

Kit = Kit (Homo sapiens, UniProt P10721); experiment: Z′-LYTE kinase inhibition assay, Kit; conditions: average of 2 runs
Source text: as §1, §2, §3, §4, §5

Lck = Lck (Homo sapiens, UniProt P06239); experiment: Z′-LYTE kinase inhibition assay, Lck; conditions: average of 2 runs; for inhibition at 1 µM: 1000 nM
Source text: as §1, §2, §3, §4, §5

Lyn = Lyn (Homo sapiens, UniProt P07948); experiment: Z′-LYTE kinase inhibition assay, Lyn; conditions: average of 2 runs; for inhibition at 1 µM: 1000 nM
Source text: as §1, §2, §3, §4, §5

pdgfr-a = pdgfr-a (Homo sapiens, UniProt P16234); experiment: Z′-LYTE kinase inhibition assay, pdgfr-a; conditions: average of 2 runs; for inhibition at 1 µM: 1000 nM
Source text: as §1, §2, §3, §4, §5

pdgfr-b = pdgfr-b (Homo sapiens, UniProt P09619); experiment: Z′-LYTE kinase inhibition assay, pdgfr-b; conditions: average of 2 runs
Source text: as §1, §2, §3, §4, §5

Ret = Ret (Homo sapiens, UniProt P07949); experiment: Z′-LYTE kinase inhibition assay, Ret; conditions: for IC50 of Kinase/IC50 of Yes: Ret relative to Yes; for IC50: error is standard deviation
Source text: as §1, §2, §3, §4, §5

Yes = Yes (Homo sapiens, UniProt P07947); experiment: Z′-LYTE kinase inhibition assay, Yes; conditions: for IC50 of Kinase/IC50 of Yes: Yes relative to Yes; for inhibition at 1 µM: 1000 nM; for IC50: error is standard deviation
Source text: as §1, §2, §3, §4, §5

Src kinase = Src kinase (Homo sapiens, UniProt P12931); experiment: Z′-LYTE kinase inhibition assay, Src; conditions: for IC50 of Kinase/IC50 of Yes: Src relative to Yes; for IC50: Src, error is standard deviation
Source text: Based on the observed stereochemical stabilities, we chose 1f, 2e, and 2f for further study and obtained inhibition data against Src kinase from Life Technologies' Z′-LYTE™ kinase assay (Scheme 3).
as §1, §2, §3, §4, §5

[1] = tested on: panel of 18 tyrosine kinases; experiment: Kinase inhibitor profiling across a panel of tyrosine kinases (selectivity); conditions: for S(40%): number of kinases inhibited greater than 40% divided by number of kinases tested (including Src)
Procedure: In order to probe the effect of atropisomeric conformation on kinase selectivity we subjected 1f, 2e, and 2f to kinase inhibitor profiling across a panel of tyrosine kinases at 1000 nM and 5000 nM (data for 2e shown in Scheme 4 below).
To analyze each analog's selectivity across the panel we turned to selectivity scores (Davis et al., Nat. Biotechnol. 2011, 29, 1046-51), simply the number of kinases inhibited above a certain threshold divided by the number of kinases evaluated. […] For example at 1000 nM 2e-(R) yielded an S(40%) of 0.11 while 2e-(S) gave an S(40%) of 0.16. […] Differences in selectivity between 2e-(R) and 2e-(S) at 5000 nM (4.5 times the IC50 of 2e-(S) toward Src) and for 5 at 1000 nM (6.25 times the IC50 of 5 toward Src) can be viewed graphically across tyrosine kinases (FIG. 3). Importantly, similar trends were also observed across each of the atropisomeric series tested.
as §1, §2, §3, §4, §5

Chain of Abl (P00519 whole entry): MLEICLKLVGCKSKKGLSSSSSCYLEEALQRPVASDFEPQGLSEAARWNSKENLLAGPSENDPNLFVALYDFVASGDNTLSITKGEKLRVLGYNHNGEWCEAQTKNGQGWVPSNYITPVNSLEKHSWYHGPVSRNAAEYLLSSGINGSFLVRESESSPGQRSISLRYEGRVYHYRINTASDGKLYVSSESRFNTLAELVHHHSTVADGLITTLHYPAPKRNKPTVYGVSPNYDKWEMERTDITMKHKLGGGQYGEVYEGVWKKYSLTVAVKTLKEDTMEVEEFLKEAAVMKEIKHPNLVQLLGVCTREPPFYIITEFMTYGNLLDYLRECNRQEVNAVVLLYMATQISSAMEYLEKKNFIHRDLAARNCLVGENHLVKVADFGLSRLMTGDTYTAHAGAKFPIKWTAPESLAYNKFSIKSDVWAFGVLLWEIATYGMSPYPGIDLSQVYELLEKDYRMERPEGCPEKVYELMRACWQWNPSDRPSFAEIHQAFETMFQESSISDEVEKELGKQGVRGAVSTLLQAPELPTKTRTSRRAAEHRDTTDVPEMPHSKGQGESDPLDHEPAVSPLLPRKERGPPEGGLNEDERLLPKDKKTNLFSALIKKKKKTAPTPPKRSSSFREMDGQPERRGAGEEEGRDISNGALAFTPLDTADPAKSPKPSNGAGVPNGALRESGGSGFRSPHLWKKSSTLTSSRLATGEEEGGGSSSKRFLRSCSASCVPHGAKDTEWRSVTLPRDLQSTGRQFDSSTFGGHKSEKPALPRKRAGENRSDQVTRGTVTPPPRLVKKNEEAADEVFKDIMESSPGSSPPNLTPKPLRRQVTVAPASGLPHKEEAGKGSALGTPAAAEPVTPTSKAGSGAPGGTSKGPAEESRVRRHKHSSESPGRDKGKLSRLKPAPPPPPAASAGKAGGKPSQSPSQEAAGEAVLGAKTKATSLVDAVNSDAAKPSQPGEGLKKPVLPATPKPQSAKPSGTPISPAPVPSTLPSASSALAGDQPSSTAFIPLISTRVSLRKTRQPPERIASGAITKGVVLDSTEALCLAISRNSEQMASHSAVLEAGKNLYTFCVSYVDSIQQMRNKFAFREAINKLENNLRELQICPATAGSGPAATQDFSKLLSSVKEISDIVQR
Chain of Kit (P10721 26-976): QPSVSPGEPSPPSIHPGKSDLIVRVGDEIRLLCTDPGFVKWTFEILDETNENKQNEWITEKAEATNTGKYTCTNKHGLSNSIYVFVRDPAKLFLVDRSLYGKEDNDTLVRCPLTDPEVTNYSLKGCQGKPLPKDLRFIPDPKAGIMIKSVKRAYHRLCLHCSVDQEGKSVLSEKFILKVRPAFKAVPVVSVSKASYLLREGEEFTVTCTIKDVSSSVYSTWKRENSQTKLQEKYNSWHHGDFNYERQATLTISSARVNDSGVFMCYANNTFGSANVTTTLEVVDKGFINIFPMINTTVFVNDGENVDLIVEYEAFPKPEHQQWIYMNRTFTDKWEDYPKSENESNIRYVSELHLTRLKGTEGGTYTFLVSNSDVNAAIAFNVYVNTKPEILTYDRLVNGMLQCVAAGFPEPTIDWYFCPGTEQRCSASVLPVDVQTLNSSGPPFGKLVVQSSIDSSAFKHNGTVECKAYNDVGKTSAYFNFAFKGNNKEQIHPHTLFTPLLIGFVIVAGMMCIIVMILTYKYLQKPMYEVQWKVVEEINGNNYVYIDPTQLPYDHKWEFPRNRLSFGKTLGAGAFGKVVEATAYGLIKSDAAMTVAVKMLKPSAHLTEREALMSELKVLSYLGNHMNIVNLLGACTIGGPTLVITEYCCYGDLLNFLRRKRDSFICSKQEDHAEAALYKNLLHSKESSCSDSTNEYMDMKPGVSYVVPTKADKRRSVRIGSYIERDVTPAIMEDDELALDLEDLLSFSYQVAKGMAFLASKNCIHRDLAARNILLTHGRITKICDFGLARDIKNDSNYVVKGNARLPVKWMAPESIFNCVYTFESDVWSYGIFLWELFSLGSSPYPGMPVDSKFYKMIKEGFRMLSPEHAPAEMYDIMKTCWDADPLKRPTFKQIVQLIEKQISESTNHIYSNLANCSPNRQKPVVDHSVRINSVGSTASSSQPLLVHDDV
Chain of Lyn (P07948 whole entry): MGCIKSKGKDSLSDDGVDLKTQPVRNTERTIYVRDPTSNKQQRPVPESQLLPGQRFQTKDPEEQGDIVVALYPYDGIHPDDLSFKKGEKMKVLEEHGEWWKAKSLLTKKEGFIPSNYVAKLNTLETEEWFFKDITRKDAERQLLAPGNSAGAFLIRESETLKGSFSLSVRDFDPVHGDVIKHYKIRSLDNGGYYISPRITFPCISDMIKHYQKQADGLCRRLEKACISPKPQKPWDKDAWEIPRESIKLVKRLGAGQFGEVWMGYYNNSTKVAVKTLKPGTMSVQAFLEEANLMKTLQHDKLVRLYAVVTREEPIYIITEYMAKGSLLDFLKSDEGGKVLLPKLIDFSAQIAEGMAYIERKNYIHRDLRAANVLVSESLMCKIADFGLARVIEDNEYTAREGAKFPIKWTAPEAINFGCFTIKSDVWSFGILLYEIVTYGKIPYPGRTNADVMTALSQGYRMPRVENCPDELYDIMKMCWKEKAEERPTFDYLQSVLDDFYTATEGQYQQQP
Chain of Hck (P08631 whole entry): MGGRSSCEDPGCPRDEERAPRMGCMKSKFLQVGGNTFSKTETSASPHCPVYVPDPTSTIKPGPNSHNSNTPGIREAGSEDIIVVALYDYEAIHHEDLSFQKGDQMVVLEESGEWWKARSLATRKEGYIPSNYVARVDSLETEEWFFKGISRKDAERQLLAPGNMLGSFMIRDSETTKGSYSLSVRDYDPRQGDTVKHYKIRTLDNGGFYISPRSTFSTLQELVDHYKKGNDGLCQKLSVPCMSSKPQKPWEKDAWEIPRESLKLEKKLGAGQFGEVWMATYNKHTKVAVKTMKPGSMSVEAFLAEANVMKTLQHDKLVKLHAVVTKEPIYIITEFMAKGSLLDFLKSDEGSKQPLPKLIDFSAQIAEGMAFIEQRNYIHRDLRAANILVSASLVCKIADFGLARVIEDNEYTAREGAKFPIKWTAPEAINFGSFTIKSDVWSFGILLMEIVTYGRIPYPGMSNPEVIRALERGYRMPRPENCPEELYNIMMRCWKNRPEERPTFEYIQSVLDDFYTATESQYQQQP
Chain of Lck (P06239 whole entry): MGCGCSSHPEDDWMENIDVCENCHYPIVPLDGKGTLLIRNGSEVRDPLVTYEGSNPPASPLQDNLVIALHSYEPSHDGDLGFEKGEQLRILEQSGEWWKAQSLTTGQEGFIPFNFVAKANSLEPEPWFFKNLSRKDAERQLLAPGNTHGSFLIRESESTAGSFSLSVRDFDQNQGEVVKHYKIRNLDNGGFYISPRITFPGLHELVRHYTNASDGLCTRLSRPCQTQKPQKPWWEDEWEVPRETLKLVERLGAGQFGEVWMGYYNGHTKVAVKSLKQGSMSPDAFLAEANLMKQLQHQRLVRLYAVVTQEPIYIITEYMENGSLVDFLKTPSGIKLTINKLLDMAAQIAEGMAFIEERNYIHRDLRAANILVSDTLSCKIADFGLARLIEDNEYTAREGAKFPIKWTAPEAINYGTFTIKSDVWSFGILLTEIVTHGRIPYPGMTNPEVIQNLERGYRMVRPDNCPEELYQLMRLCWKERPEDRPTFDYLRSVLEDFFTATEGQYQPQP
Chain of pdgfr-a (P16234 24-1089): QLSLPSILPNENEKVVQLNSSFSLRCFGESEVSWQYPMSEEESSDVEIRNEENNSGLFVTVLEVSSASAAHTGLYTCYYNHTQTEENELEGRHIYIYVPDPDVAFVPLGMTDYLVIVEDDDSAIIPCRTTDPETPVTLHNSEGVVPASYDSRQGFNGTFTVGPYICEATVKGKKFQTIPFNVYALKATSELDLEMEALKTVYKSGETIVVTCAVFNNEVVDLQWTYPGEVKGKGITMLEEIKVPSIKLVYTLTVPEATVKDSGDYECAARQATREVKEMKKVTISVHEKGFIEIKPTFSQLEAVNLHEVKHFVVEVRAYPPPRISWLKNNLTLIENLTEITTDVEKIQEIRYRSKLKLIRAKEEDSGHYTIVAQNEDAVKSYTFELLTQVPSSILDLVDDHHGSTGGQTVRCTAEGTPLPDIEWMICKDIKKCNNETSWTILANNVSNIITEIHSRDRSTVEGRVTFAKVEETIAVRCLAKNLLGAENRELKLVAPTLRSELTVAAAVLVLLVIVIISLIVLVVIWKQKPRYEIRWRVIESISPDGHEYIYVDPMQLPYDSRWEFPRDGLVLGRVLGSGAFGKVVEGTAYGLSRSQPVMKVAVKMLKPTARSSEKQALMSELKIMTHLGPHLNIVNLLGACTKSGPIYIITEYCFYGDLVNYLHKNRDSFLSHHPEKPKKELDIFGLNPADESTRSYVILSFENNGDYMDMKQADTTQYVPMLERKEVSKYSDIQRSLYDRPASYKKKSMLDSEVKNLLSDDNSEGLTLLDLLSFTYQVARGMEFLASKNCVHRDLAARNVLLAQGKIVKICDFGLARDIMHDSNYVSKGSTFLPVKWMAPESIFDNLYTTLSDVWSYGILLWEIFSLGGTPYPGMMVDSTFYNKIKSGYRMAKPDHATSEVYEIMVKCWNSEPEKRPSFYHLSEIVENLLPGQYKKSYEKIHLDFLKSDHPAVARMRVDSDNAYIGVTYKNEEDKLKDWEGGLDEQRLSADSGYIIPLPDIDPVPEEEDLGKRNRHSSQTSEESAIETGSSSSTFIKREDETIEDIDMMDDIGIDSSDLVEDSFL

IC50 of Kinase/IC50 of Yes (Abl): 10.0
% inhibition (Abl; Abl, 1000 nM, average of 2 runs, 1 µM): 11%
% inhibition (Abl; Abl, 5000 nM, average of 2 runs): 26%
% inhibition (Abl; Abl, 5000 nM, average of 2 runs, 5 µM): 26%
IC50 (Abl; Abl): > 10 µM
inhibition at 1 µM (Alk): 6%
% inhibition (Alk; 5000 nM, 5 µM): 18%
% inhibition (Blk; 1000 nM, 1 µM): 3%
inhibition at 5 µM (Blk; 5000 nM): 32%
inhibition at 1 µM (BTK): 10%
% inhibition (BTK; 5000 nM, 5 µM): 29%
inhibition at 1 µM (CSK): 21%
inhibition at 5 µM (CSK; 5000 nM): 35%
IC50 of Kinase/IC50 of Yes (EGFR): >10.0
% inhibition (EGFR; EGFR, 1000 nM, average of 2 runs, 1 µM): −4%
% inhibition (EGFR; EGFR, 5000 nM, average of 2 runs, 5 µM): 0%
IC50 (EGFR; EGFR): > 10 µM
% inhibition (Her-2; 1000 nM, 1 µM): −2%
inhibition at 5 µM (Her-2; 5000 nM): 0%
inhibition at 1 µM (Fgr): 45%
inhibition at 5 µM (Fgr; 5000 nM): 77%
inhibition at 1 µM (Fyn): 19%
inhibition at 5 µM (Fyn; 5000 nM): 44%
inhibition at 1 µM (Hck): 24%
inhibition at 5 µM (Hck; 5000 nM): 40%
% inhibition (Kit; 1000 nM, 1 µM): 5%
inhibition at 5 µM (Kit; 5000 nM): 26%
inhibition at 1 µM (Lck): 23%
inhibition at 5 µM (Lck; 5000 nM): 51%
inhibition at 1 µM (Lyn): 19%
inhibition at 5 µM (Lyn; 5000 nM): 57%
inhibition at 1 µM (pdgfr-a): 3%
inhibition at 5 µM (pdgfr-a; 5000 nM): 8%
% inhibition (pdgfr-b; 1000 nM, 1 µM): 4%
inhibition at 5 µM (pdgfr-b; 5000 nM): 13%
IC50 of Kinase/IC50 of Yes (Ret): 2.07
% inhibition (Ret; Ret, 1000 nM, average of 2 runs, 1 µM): 35%
% inhibition (Ret; Ret, 5000 nM, average of 2 runs): 73%
% inhibition (Ret; Ret, 5000 nM, average of 2 runs, 5 µM): 73%
IC50 (Ret; Ret): 1.86 µM
IC50 of Kinase/IC50 of Yes (Yes): 1
inhibition at 1 µM (Yes; Yes, average of 2 runs): 53%
inhibition at 5 µM (Yes; Yes, 5000 nM, average of 2 runs): 79%
IC50 (Yes; Yes): 0.895 µM
IC50 of Kinase/IC50 of Yes (Src kinase): 6.22
IC50 (Src kinase): 5.57 µM
S(40%) ([1]; 1000 nM): 0.11
S(40%) ([1]; 5000 nM): 0.44
augmentation of 5's inherent selectivity ([1]; Ret over Abl and Src): 4 fold
Structure (SMILES): COc1ccc(Cl)c(-c2c(Cl)n(C(C)(C)C)c3ncnc(N)c23)c1 (single isomer, unassigned) [2e-(R), 7-(tert-butyl)-6-chloro-5-(2-chloro-5-methoxyphenyl)-7H-pyrrolo[2,3d]pyrimidin-4-amine]

IC50 of Kinase/IC50 of Yes (Abl): 2.65
inhibition at 0.2 µM (Abl; Abl, 200 nM, average of 2 runs): 37%
inhibition at 1 µM (Abl; Abl, 1000 nM, average of 2 runs): 78%
IC50 (Abl; Abl): 0.244 µM
inhibition at 0.2 µM (Alk; 200 nM): 11%
inhibition at 1 µM (Alk): 23%
inhibition at 0.2 µM (Blk; 200 nM): 38%
inhibition at 1 µM (Blk; 1000 nM): 74%
inhibition at 0.2 µM (BTK; 200 nM): 62%
inhibition at 1 µM (BTK): 90%
inhibition at 0.2 µM (CSK; 200 nM): 36%
inhibition at 1 µM (CSK): 65%
IC50 of Kinase/IC50 of Yes (EGFR): 7 and 6.96
inhibition at 0.2 µM (EGFR; EGFR, 200 nM, average of 2 runs): 28%
inhibition at 1 µM (EGFR; EGFR, 1000 nM, average of 2 runs): 62%
IC50 (EGFR; EGFR): 0.641 µM
inhibition at 0.2 µM (Her-2; 200 nM): 4%
inhibition at 1 µM (Her-2; 1000 nM): 16%
inhibition at 0.2 µM (Fgr; 200 nM): 69%
inhibition at 1 µM (Fgr): 92%
inhibition at 0.2 µM (Fyn; 200 nM): 56%
inhibition at 1 µM (Fyn): 84%
inhibition at 0.2 µM (Hck; 200 nM): 59%
inhibition at 1 µM (Hck): 80%
inhibition at 0.2 µM (Kit; 200 nM): 8%
inhibition at 1 µM (Kit; 1000 nM): 27%
inhibition at 0.2 µM (Lck; 200 nM): 32%
inhibition at 1 µM (Lck): 79%
inhibition at 0.2 µM (Lyn; 200 nM): 58%
inhibition at 1 µM (Lyn): 85%
inhibition at 0.2 µM (pdgfr-a; 200 nM): 11%
inhibition at 1 µM (pdgfr-a): 34%
inhibition at 0.2 µM (pdgfr-b; 200 nM): 6%
inhibition at 1 µM (pdgfr-b; 1000 nM): 19%
IC50 of Kinase/IC50 of Yes (Ret): 1.4
inhibition at 0.2 µM (Ret; Ret, 200 nM, average of 2 runs): 59%
inhibition at 1 µM (Ret; Ret, 1000 nM, average of 2 runs): 89%
IC50 (Ret; Ret): 0.128 µM
IC50 of Kinase/IC50 of Yes (Yes): 1
inhibition at 0.2 µM (Yes; Yes, 200 nM, average of 2 runs): 63%
inhibition at 1 µM (Yes; Yes, average of 2 runs): 90%
IC50 (Yes; Yes): 0.092 µM
IC50 of Kinase/IC50 of Yes (Src kinase): 1.64
IC50 (Src kinase): 0.151 µM
S(40%) ([1]; 200 nM): 0.44
S(40%) ([1]; 1000 nM): 0.72
relative selectivities favoring Yes (IC50 kinase/IC50 YES) over Ret, Src, and Abl ([1]; Ret, Src, Abl vs Yes): 1.4-2.65 fold
Structure (SMILES): COc1cccc(-c2cn(C(C)(C)C)c3ncnc(N)c23)c1 [Compound 5, reference compound]
